Data published in patent US7973069B2 (PTC Therapeutics, Inc., priority 2004, dated 2011).
Values joined by “and” are separate entries in the source; they are usually repeats but may differ in a detail not shown here. Equal entries are not always repeated.

What follows are molecules tested on HCV replicon.
Format: cell-based

Compound | IC50
CC#CCOC(=O)Nc1ccc(-c2c(C#N)c3ccc(OCC)cc3n2C2CCC2)cc1 [Compound 976] | 0.5 to 2 µM
CCOc1ccc2c(C#N)c(-c3ccc(NC(=O)OCCF)cc3)n(CC)c2c1 [Compound 950] | 0.5 to 2 µM
CCOc1ccc2c(C#N)c(-c3ccc(NC(=O)OCC4(C)CC4)cc3)n(C3CCC3)c2c1 [Compound 1208] | < 0.5 µM
COc1ccc2c(C#N)c(-c3ccc(NC(=O)OCc4ccccc4)cc3)n(C3CCC3)c2c1 [Compound 1079] | < 0.5 µM
C=CCNC(=O)Nc1ccc(-c2c(C#N)c3cc4c(cc3n2C2CCC2)OCO4)cc1 [Compound 1304] | 0.5 to 2 µM
CCCn1c(-c2ccc(NC(=O)OC)cc2)c(C#N)c2ccc(OCC)cc21 [Compound 1062] | 0.5 to 2 µM
CCCn1c(-c2ccc(NS(C)(=O)=O)cc2)c(C#N)c2ccc(OCc3ccccc3)cc21 [Compound 921] | 0.5 to 2 µM
CCNC(=O)Nc1ccc(-c2c(C#N)c3ccc(OCC)cc3n2C(C)C)cc1 [Compound 1098] | 0.5 to 2 µM
CCn1c(-c2ccc(NC(=O)OC)c(F)c2)c(C#N)c2ccc(OC)cc21 [Compound 875] | 0.5 to 2 µM
CCOc1ccc2c(c1)c(C#N)c(-c1ccc(NC(=O)OC(C)COC)cc1)n2C1CCC1 (stereo not shown) [Compound 1299] | 0.5 to 2 µM
CCCCn1c(-c2cccc(NC(=O)OCC)c2)c(C#N)c2ccc(OCC)cc21 [Compound 1020] | < 0.5 µM and 0.5 to 2 µM
CCOc1ccc2c(c1)c(C#N)c(-c1ccc(NC(=O)OC(C)C)cc1)n2C1CCC1 [Compound 1195] | < 0.5 µM
CC(C)OC(=O)Nc1ccc(-c2c(C#N)c3ccc(Oc4ncccn4)cc3n2C2CCC2)cc1 [Compound 2151] | < 0.5 µM
CCOc1ccc2c(c1)c(C#N)c(-c1ccc(NC(=O)OC(C)C3CC3)cc1)n2C1CCC1 (stereo not shown) [Compound 1296] | 0.5 to 2 µM
C=CCOC(=O)Nc1ccc(-c2c(C#N)c3cc(OC)ccc3n2C2CCC2)cc1 [Compound 1180] | 0.5 to 2 µM
CCOCCOC(=O)Nc1ccc(-c2c(C#N)c3ccc(OCC)cc3n2C2CCC2)cc1 [Compound 1250] | < 0.5 µM

Compound | IC50
CCCOC(=O)N(CC)c1ccc(-c2c(C#N)c3ccc(OCC)cc3n2C2CCC2)cc1 [Compound 1252] | 0.5 to 2 µM
C[C@@H](OC(=O)Nc1ccc(-c2c(C#N)c3ccc(Oc4ncccn4)cc3n2C2CC2)cc1F)C1CC1 [Compound 2413] | < 0.5 µM
CC(C)NC(=O)Nc1ccc(-c2c(C#N)c3ccc(OCCF)cc3n2C2CCC2)cc1 [Compound 1108] | < 0.5 µM
CCn1c(-c2ccc(NC(=O)OCC(C)C)cc2)c(C#N)c2ccc(OCCF)cc21 [Compound 947] | < 0.5 µM
CC(C)OC(=O)Nc1ccc(-c2c(C#N)c3ccc(OCCN4CCCC4)cc3n2C2CCC2)cc1 [Compound 1142] | < 0.5 µM
CC(C)NC(=O)Nc1ccc(-c2c(C#N)c3ccc(OCCNC4CC4)cc3n2C2CCC2)cc1 [Compound 1317] | < 0.5 µM
N#Cc1c(-c2ccc(N3CCCS3(=O)=O)cc2)n(CCF)c2cc(OC(F)(F)F)ccc12 [Compound 905] | < 0.5 µM
CCCOC(=O)Nc1ccc(-c2c(C#N)c3ccc(OCC)cc3n2CC2CC2)cc1 [Compound 1149] | < 0.5 µM
COc1ccc2c(C#N)c(-c3ccc(NC(=O)OCC(C)(C)C)cc3)n(C3CCC3)c2c1 [Compound 1078] | < 0.5 µM and 0.5 to 2 µM
COc1ccc2c(c1)c(C#N)c(-c1ccc(NS(=O)(=O)C3CC3)cc1)n2C1CCC1 [Compound 1182] | < 0.5 µM and > 2 µM
CCOc1ccc2c(C#N)c(-c3ccc(NC(=O)OCC(C)C)cc3)n(C3CCC3)c2c1 [Compound 979] | < 0.5 µM
CCCn1c(-c2ccc(NC(=O)OCC)cc2)c(C#N)c2ccc(OCC)cc21 [Compound 1063] | 0.5 to 2 µM
COC(=O)c1ccc2c(C#N)c(-c3ccc(NC(=O)OC(C)C)cc3)n(C3CCC3)c2c1 [Compound 1300] | < 0.5 µM
CCn1c(-c2ccc(NC(=O)NC(C)C)cc2)c(C#N)c2cc3c(cc21)OCO3 [Compound 1039] | 0.5 to 2 µM
CCOc1ccc2c(C#N)c(-c3ccc(NC(=O)NC(C)C)cc3)n(CC3CC3)c2c1 [Compound 1120] | < 0.5 µM
